Source: US7998460B2, “Prevention of deficits in neurogenesis with anti-inflammatory agents” (The Board of Trustees of the Leland Stanford Junior …, priority 2003, dated 2011)

Key:
C57BI/6 mice = experiment: Locomotor chambers and Morris water maze after LPS in mice; format: in vivo, mouse; conditions: for distance swum to hidden platform in training, NSAID alone: first training session, no LPS; for probe trial performance, NSAID alone: no LPS challenge
Procedure: Behavioral testing. Locomotor activity was measured in 17×17 inch chambers lined with three 16-beam infrared arrays in photocell boxes (MED Associates, Inc., St. Albans, Vt.). The mice were placed into the chambers and their locomotor activity was recorded for 20 minutes 4 days after LPS was injected (on Day 4). A 50 msec scanning rate was used for measuring beams broken. Distance traveled was analyzed for estimates of locomotion based on the movement of a given distance and resting delay (movement in a given period) using Open Field Activity software (MED Associates, Inc., St. Albans, Vt.).
Hippocampus-dependent learning and memory was assessed in the standard Morris water maze task. All hippocampus-dependent training and testing was conducted in a black circular tank (170 cm diameter×43 cm height) filled water made opaque using white non-toxic Tempra paint (Rich Art Color Co. Inc, Northvale, Calif.; training and testing). A platform (13 cm diameter×28.5 cm height) was hidden 1 cm below the water surface for platform shaping and training trials. Time and distance traveled in the pool was recorded using Videotrack Automated Behavioral Analysis System (Viewpoint Life Sciences Inc., Otterburn Park, Quebec).
Platform shaping began three days before platform training (Days 25-27). In the absence of extra-maze cues, mice were released from random points in the pool (filled with clearwater) near the platform and gently guided to the platform. Shaping trials continued until the mouse remained on the platform for 15 s over 3 consecutive trials on each of the three sessions.
[…] In the presence of extra-maze cues, the mice were released from the middle of the east, south, or west quadrant, facing the pool wall, and were given 120 s to find the platform hidden beneath opaque water in the center of the north quadrant. […] Sessions of 6 training trials (inter-trial interval of approximately 30 min) were conducted daily until all the mice located the platform in an average of 15 s or less within a session. […] Pathlength and latency were analyzed as measures of learning, swim speed was analyzed as a measure of sensorimotor ability and % time spent in outer annulus was analyzed as a measure of anxiety.
Probe Trial Testing was conducted at 1 week after mice reached criterion in the platform training phase of the experiment. The room setup was identical for platform training and probe trials, with the exception that the platform was removed from the pool during probe trials. The mice were given a single trial in which they were released from the center of the pool and then after 3 minutes were removed from the location that held the platform during training trials. Percent time and distance spent in each quadrant were analyzed as measures of memory, swim speed and total distance swum were analyzed as measures of sensorimotor ability and % time and distance spent in the outer annulus were analyzed as measures of anxiety. After the last probe trial, we ran four daily sessions of reversal trials (4 trials per session) in which mice were given 120 s to locate the platform hidden beneath opaque water in the south quadrant to better interpret whether probe trial performance was indicative of memory or perseveration. […] A visible platform session (2 trials) was administered after the final reversal trial to further test sensorimotor ability. Reversal and visible platform trial performance was scored identically to platform training performance.

[1] = tested on: adult hippocampus-derived neural precursor cells; experiment: In vitro neuronal differentiation (doublecortin) of hippocampal neural progenitor cells, 60 hours; format: cell-based, rat; conditions: for effect on in vitro neurogenesis (Dcx-expressing cells relative to control): 60 hours differentiation
Source text: Neuroinflammation could inhibit neurogenesis by a variety of mechanisms, including stimulation of the HPA axis with subsequent elevation of gluccocorticoids, alterations in the relationships between progenitor cells and cells of the neuro-vasculature, or direct effects of activated microglia on the precursor cells. To determine the extent to which microglial activation might directly affect neural stem/progenitor cells, microglia were stimulated in vitro with LPS. LPS is a potent activator of microglia and up-regulates the elaboration of pro-inflammatory cytokines, including IL-6 and TNF-α. LPS-stimulated or resting microglia were then co-cultured with normal neural stem cells from the hippocampus under conditions that typically stimulate the differentiation of 30 to 40% of the progenitor cells into immature Dcx-expressing neurons (normalized to a value of 1 in FIG. 2A, control). Neurogenesis in the presence of microglia was assessed as the increase or decrease in Dcx-expressing cells relative to control. Co-culture with activated, but not resting, microglia decreased in vitro neurogenesis to approximately half of control levels (FIG. 2A). LPS added directly to precursor cells had no effect on neurogenesis.
To determine if this effect was due to soluble factors or due to cell-cell contact, hippocampal precursor cells were differentiated in the presence of media pre-conditioned by resting or activated microglia.
Activated microglia produce the potent pro-inflammatory cytokines interleukin-1β (IL-1β), tumor necrosis factor-α (TNF-α), interferon-γ (INF-γ) and interleukin-6 (IL-6). Progenitor cells were allowed to differentiate in the presence of each cytokine and the relative expression of Dcx was scored after 60 hours. […] Addition of neutralizing anti-IL-6 antibody to CM from activated microglia was able to fully restore in vitro neurogenesis (FIG. 2A). This implicated IL-6 as a key inhibitor of neurogenesis in microglial CM. […] In contrast to neurogenesis, gliogenesis was unaffected by IL-6 exposure as indicated by the lack of change in the number of cells expressing the astrocyte (glial fibrillary acidic protein, GFAP) or early oligodendrocyte (NG2) markers relative to control cultures (FIG. 2E). The hippocampal precursors used in this study do express the IL-6 receptor, as confirmed by RT-PCR (FIG. 5).
Progenitor Cell Culture Adult hippocampus-derived neural precursor cells were isolated from adult rat hippocampus and cultured as previously described. Briefly, adult female Fisher-344 rats were deeply anesthetized with sodium pentobarbital and were dissected immediately. Hippocampi were enzymatically dissociated with papain (2.5 U/ml; Worthington, Freehold, N.J.)-dispase II (1 U/ml; Boehringer Mannheim, Indianapolis, Ind.)-DNase I (250 U/ml, Worthington) solution. Digested tissue was then washed with DMEM-10% fetal calf serum (FCS) and subsequently mixed with PBS-equilibrated Percoll solution to a final concentration of 35% Percoll. The Percoll solution was made by mixing nine parts of Percoll (Amersham Pharmacia Biotech, Uppsala, Sweden) with one part of 10× PBS. The cell suspension was then fractionated by centrifugation for 10 min at 1000×gravity. Floating myelin and tissue debris were discarded and the cell pellet re-suspended in 65% Percoll solution and fractionated again by centrifugation for 10 min at 1000×g. The floating neural precursors were collected, washed free of Percoll, and plated onto poly-L-ornithine/laminin-coated dishes in DMEM/F12 (1:1) containing 10% FCS medium for 24 hrs; then medium was replaced with serum-free growth medium consisting of DMEM/F12 (1:1) supplemented with N2 supplement (Life Technologies, Gaithersburg, Md.) and 20 ng/ml of human recombinant FGF-2 (Peprotech, Rocky Hill, N.J.). Cell lines were labeled via infection with replication deficient GFP-expressing recombinant retrovirus LZRS-CAMut4GFP. […]

neural progenitor cells = experiment: Differentiation of mouse neural progenitor cells with recombinant MCP-1, 5 days; format: cell-based; conditions: rmMCP-1 up to 100 ug/ml
Procedure: To determine if MCP-1 was acting directly on neural progenitor cells to mediate these effects, brains from wild type, MCP-1^−/−, or CCR2^−/− mice were enzymatically dissociated and neurosphere cultures established in growth medium (Neurobasal-A, B27 supplement, 10 ng/ml EGF, 20 ng/ml FGF-2). Neurospheres were dissociated at passage 2-3 and plated as monolayers on laminin coated dishes and then induced to differentiate by replacing growth medium with differentiation medium (Neurobasal-A, B27, 1 ng/ml FGF-2, 100 nM all-trans retinoic acid, 10 ng/ml BDNF, 10 ng/ml NT3). Increasing concentrations of recombinant mouse MCP-1 (rmMCP-1) were added to the medium and cells were allowed to differentiate for 5 days. Cells were then fixed and stained for Dcx (FIG. 11C-C). Within 5 days of differentiation, a proportion of cells became positive for Dcx. […] Similarly, addition of rmMCP-1 up to a final concentration of 100 ug/ml had no effect on the number of neurons produced.
Progenitor Cell Culture and Differentiation Whole brains from PO mouse pups were enzymatically digested with a mixture of papain, neutral protease, and DNAse. Neurospheres were cultured on uncoated plates with medium containing Neurobasal A (Gibco), L-glutamine, PSF, B-27 without vitamin A, 40 ng/ml FGF-2, and 40 ng/ml EGF. Cultures were passaged in parallel when reaching confluence and total viable cell counts were made using a hemocytometer to score trypan blue-excluding cells at each passage. Cells were induced to differentiate by plating dissociated cells into laminin-coated multi-chamber tissue culture slides (Nunc) in differentiation media, Neurobasal A, B-27 without vitamin A, 1% fetal bovine serum, 100 nM all trans-retinoic acid, 1 ng/ml FGF-2, 10 ng/ml BDNF, and 10 ng/ml NT3. […] Total nuclei per sample site was scored using DAPI, neurons were scored on the basis of Dcx immunoreactivity. No significant differences were detected in either growth or differentiation between wild type and MCP-1^−/− or CCR2^−/− mice

## Cc1ccc(-c2cc(C(F)(F)F)nn2-c2ccc(S(N)(=O)=O)cc2)cc1 [Celebrex, celecoxib]
C57BI/6 mice
  distance swum to hidden platform in training, NSAID alone: slight but significant increased distance swum
  probe trial performance, NSAID alone: performed as badly as LPS-treated mice
C57BI/6 mice; listed as celebrex
  distance swum to hidden platform in training, NSAID alone: slight but significant initial increase in swimming distance
  probe trial performance, NSAID alone: alone significantly impaired memory

## TNF-α
[1]; recombinant IL-6 50 ng/ml or TNF-α 20 ng/ml, 60 hours
  decrease of in vitro neurogenesis (relative expression of Dcx): approximately 50%

## rmMCP-1: recombinant mouse monocyte chemoattractant protein-1 (Peprotech)
Neural progenitor cells
  extent of neuronal arborization: Neither was the extent of arborization influenced
  number of Dcx-positive neurons produced: no effect
Neural progenitor cells; listed as MCP-1
  number of Dcx-positive neurons produced: does not directly affect

B1: IL-1β: recombinant rat interleukin 1β (protein, UniProt Q63264 117-268, looked up)
Interleukin-1 beta: VPIRQLHCRLRDEQQKCLVLSDPCELKALHLNGQNISQQVVFSMSFVQGETSNDKIPVALGLKGLNLYLSCVMKDGTPTLQLESVDPKQYPKKKMEKRFVFNKIEVKTKVEFESAQFPNWYISTSQAEHRPVFLGNSNGRDIVDFTMEPVSS
[1]
  effect on in vitro neurogenesis (Dcx-expressing cells relative to control): not significant

B2: INF-γ: recombinant rat interferon γ (protein, UniProt P01581 23-156, looked up)
Interferon gamma: QGTLIESLESLKNYFNSSSMDAMEGKSLLLDIWRNWQKDGNTKILESQIISFYLRLFEVLKDNQAISNNISVIESHLITNFFSNSKAKKDAFMSIAKFEVNNPQIQHKAVNELIRVIHQLSPESSLRKRKRSRC
[1]
  effect on in vitro neurogenesis (Dcx-expressing cells relative to control): not significant
